# Test results taken from patent publication US20030087906A1, “NITROGEN SUBSTITUTED BIARYL PURINE DERIVATIVES AS POTENT ANTIPROLIFERATIVE AGENTS” (priority 2001, published 2003).
# “And” between values parts separate entries of the source, which are not always exact repeats. Identical values can stand only once.
# Key:
# HeLa S-3 cells = test: Inhibition of cell growth of HeLa cells (SRB); assay type: cell-based, human; settings: 2 days of treatment, replicate experiments
# BT-549 = test: NCI 60-cell line growth inhibition assay; assay type: cell-based; settings: Homo sapiens
# HS 578T = test: NCI 60-cell line growth inhibition assay; assay type: cell-based; settings: Homo sapiens
# MCF7 = test: NCI 60-cell line growth inhibition assay; assay type: cell-based; settings: Homo sapiens
# MDA-MB-435 = test: NCI 60-cell line growth inhibition assay; assay type: cell-based; settings: Homo sapiens
# T-47D = test: NCI 60-cell line growth inhibition assay; assay type: cell-based; settings: Homo sapiens, T47D
# SF-539 = test: NCI 60-cell line growth inhibition assay; assay type: cell-based; settings: Homo sapiens
# SNB-19 = test: NCI 60-cell line growth inhibition assay; assay type: cell-based; settings: Homo sapiens
# HT29 = test: NCI 60-cell line growth inhibition assay; assay type: cell-based; settings: Homo sapiens, HT-29
# HL-60(TB) = test: NCI 60-cell line growth inhibition assay; assay type: cell-based; settings: Homo sapiens; HL-60(TB) (Leukemia)
# RPMI-8226 = test: NCI 60-cell line growth inhibition assay; assay type: cell-based; settings: Homo sapiens
# LOX IMVI = test: NCI 60-cell line growth inhibition assay; assay type: cell-based; settings: Homo sapiens
# NCI-H226 = test: NCI 60-cell line growth inhibition assay; assay type: cell-based; settings: Homo sapiens
# NCI-H23 = test: NCI 60-cell line growth inhibition assay; assay type: cell-based; settings: Homo sapiens
# IGROV1 = test: NCI 60-cell line growth inhibition assay; assay type: cell-based; settings: Homo sapiens, IGROV-1
# OVCAR-4 = test: NCI 60-cell line growth inhibition assay; assay type: cell-based; settings: Homo sapiens
# OVCAR-8 = test: NCI 60-cell line growth inhibition assay; assay type: cell-based; settings: Homo sapiens
# PC-3 = test: NCI 60-cell line growth inhibition assay; assay type: cell-based; settings: Homo sapiens
# ACHN = test: NCI 60-cell line growth inhibition assay; assay type: cell-based; settings: Homo sapiens
# CAKI-1 = test: NCI 60-cell line growth inhibition assay; assay type: cell-based; settings: Homo sapiens
# RXF 393 = test: NCI 60-cell line growth inhibition assay; assay type: cell-based; settings: Homo sapiens
# SN12C = test: NCI 60-cell line growth inhibition assay; assay type: cell-based; settings: Homo sapiens
# [1] = MTD (NCI in vivo evaluation, Table 8); settings: mouse
# CyclinB/cdk1 = biological target: T1, CyclinB/cdk1 (Homo sapiens, UniProt P06493); test: CyclinB/cdk1 protein kinase assay (histone H1 phosphorylation); assay type: biochemical; settings: complex immunopurified from HeLa cells; 15 μM ATP; replicate experiments
# T1 construct: Monoclonal antibody against cyclinB (GNS1) is added to the supernatant; endogenous in cells
# Method: HeLa cells are blocked at the G1/S border by culturing in the presence of 2 mM thymidine for 20 h. The cells are then rinsed 3×in phosphate buffered saline and resuspended in regular medium. After 4 h of culture, the mitotic blocker, nocodazole is added to a final concentration of 75 ng/ml. […] The lysate is then clarified by centrifugation at 10,000×g for 10 min. The supernatant is collected and diluted 1:5 with Lysis Buffer. Monoclonal antibody against cyclinB (GNS1) is added to the supernatant to a final concentration of 5 μg/ml and shaken at 4° C. for 2 h. The immune complexes are then collected by the addition of 200 μl of protein agarose beads for 1 h. The beads are washed 4×in lysis buffer and 1×in kinase assay buffer.
# Duplicate assays were performed at each concentration.
# CyclinA/cdk2 = CyclinA/cdk2 (Homo sapiens, UniProt P24941); test: CyclinA/cdk2 protein kinase assay (histone H1 phosphorylation); settings: IC50 CyclinA/cdk2, complex immunopurified from HeLa cells; 15 μM ATP; replicate experiments
# CyclinE/cdk2 = CyclinE/cdk2 (Homo sapiens, UniProt P24941); test: CyclinE/cdk2 protein kinase assay (histone H1 phosphorylation); settings: IC50 CyclinE/cdk2, complex immunopurified from HeLa cells; 15 μM ATP; replicate experiments
# T1 sequence (P06493 whole entry): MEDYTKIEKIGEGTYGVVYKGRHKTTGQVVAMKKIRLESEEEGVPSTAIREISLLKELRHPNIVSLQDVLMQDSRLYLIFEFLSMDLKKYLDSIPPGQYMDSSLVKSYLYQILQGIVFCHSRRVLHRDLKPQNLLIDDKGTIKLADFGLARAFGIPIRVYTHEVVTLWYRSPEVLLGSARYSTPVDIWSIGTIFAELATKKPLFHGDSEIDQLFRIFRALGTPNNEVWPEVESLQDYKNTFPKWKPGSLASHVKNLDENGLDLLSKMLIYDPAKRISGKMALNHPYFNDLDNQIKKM
# T1 sequence (P14635 whole entry partner): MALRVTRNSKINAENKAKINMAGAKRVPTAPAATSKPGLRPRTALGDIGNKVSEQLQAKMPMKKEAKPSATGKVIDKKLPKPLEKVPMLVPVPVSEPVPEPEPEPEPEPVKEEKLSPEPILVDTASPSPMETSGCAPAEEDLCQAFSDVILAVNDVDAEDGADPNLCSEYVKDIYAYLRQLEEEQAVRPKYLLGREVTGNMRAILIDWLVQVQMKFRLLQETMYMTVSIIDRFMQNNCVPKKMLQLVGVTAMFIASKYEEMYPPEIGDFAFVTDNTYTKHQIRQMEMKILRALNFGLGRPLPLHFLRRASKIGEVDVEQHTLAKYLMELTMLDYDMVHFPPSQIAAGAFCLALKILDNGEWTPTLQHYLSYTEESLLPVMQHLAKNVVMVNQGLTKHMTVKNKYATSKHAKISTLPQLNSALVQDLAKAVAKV
structure (smiles),measurement,setting,value
"Cn1cnc2c(NCc3ccccc3)nc(NCCO)nc21 [Olomoucine, reference compound]",GI50,"HeLa S-3 cells; Homo sapiens, HeLa S3, 48 h",75000 nM
same,GI50,BT-549; BT-549 (Breast),79000 nM
same,GI50,HS 578T; HS 578T (Breast),63000 nM
same,GI50,MCF7; MCF7 (Breast),50000 nM
same,GI50,MDA-MB-435; MDA-MB-435 (Breast),63000 nM
same,GI50,T-47D; T-47D (Breast),63000 nM
same,GI50,SF-539; SF-539 (CNS),32000 nM
same,GI50,SNB-19; SNB-19 (CNS),63000 nM
same,GI50,HT29; HT29 (Colon),63000 nM
same,GI50,HL-60(TB),40000 nM
same,GI50,RPMI-8226; RPMI-8226 (Leukemia),50000 nM
same,GI50,LOX IMVI; LOX IMVI (Melanoma),32000 nM
same,GI50,NCI-H226; NCI-H226 (Non-Small Cell Lung),50000 nM
same,GI50,NCI-H23; NCI-H23 (Non-Small Cell Lung),79000 nM
same,GI50,IGROV1; IGROV1 (Ovarian),40000 nM
same,GI50,OVCAR-4; OVCAR-4 (Ovarian),100000 nM
same,GI50,OVCAR-8; OVCAR-8 (Ovarian),63000 nM
same,GI50,PC-3; PC-3 (Prostate),100000 nM
same,GI50,ACHN; ACHN (Renal),25000 nM
same,GI50,CAKI-1; CAKI-1 (Renal),32000 nM
same,GI50,RXF 393; RXF 393 (Renal),20000 nM
same,GI50,SN12C; SN12C (Renal),100000 nM
CC[C@H](CO)Nc1nc(NCc2ccc(-c3ccc(OC)cc3)cc2)c2ncn(C(C)C)c2n1 [Compound 43],GI50,"HeLa S-3 cells; Homo sapiens, HeLa S3, 48 h",4000 nM
same,GI50,BT-549; BT-549 (Breast),4000 nM
same,GI50,MCF7; MCF7 (Breast),2700 nM
same,GI50,MDA-MB-435; MDA-MB-435 (Breast),2100 nM
same,GI50,T-47D; T-47D (Breast),2200 nM
same,GI50,SF-539; SF-539 (CNS),3400 nM
same,GI50,SNB-19; SNB-19 (CNS),5000 nM
same,GI50,HT29; HT29 (Colon),3600 nM
same,GI50,HL-60(TB),2100 nM
same,GI50,LOX IMVI; LOX IMVI (Melanoma),3400 nM
same,GI50,NCI-H23; NCI-H23 (Non-Small Cell Lung),4300 nM
same,GI50,IGROV1; IGROV1 (Ovarian),3400 nM
same,GI50,OVCAR-4; OVCAR-4 (Ovarian),8900 nM
same,GI50,OVCAR-8; OVCAR-8 (Ovarian),3900 nM
same,GI50,PC-3; PC-3 (Prostate),38900 nM
same,GI50,ACHN; ACHN (Renal),3100 nM
same,GI50,CAKI-1; CAKI-1 (Renal),3000 nM
same,GI50,RXF 393; RXF 393 (Renal),1900 nM
CC[C@H](CO)Nc1nc(NCc2ccc(-c3ccccn3)cc2)c2ncn(C(C)C)c2n1 [Compound 17],GI50,"BT-549; Breast, BT-549",400 nM
same,GI50,"HS 578T; Breast, HS 578T",6310 nM
same,GI50,"MCF7; Breast, MCF7",160 nM
same,GI50,"MDA-MB-435; Breast, MDA-MB-435",200 nM
same,GI50,"T-47D; Breast, T-47D",130 nM
same,GI50,"SF-539; CNS, SF-539",400 nM
same,GI50,"SNB-19; CNS, SNB-19",140 nM
same,GI50,"HT29; Colon, HT29",100 nM
same,GI50,"RPMI-8226; Leukemia, RPMI-8226",30 nM
same,GI50,"LOX IMVI; Melanoma, LOX IMVI",320 nM
same,GI50,"NCI-H226; Non-Small Cell Lung, NCI-H226",110 nM
same,GI50,"NCI-H23; Non-Small Cell Lung, NCI-H23",160 nM
same,GI50,"IGROV1; Ovarian, IGROV1",200 nM
same,GI50,"OVCAR-4; Ovarian, OVCAR-4",320 nM
same,GI50,"OVCAR-8; Ovarian, OVCAR-8",130 nM
same,GI50,"PC-3; Prostate, PC-3",200 nM
same,GI50,"ACHN; Renal, ACHN",400 nM
same,GI50,"CAKI-1; Renal, CAKI-1",130 nM
same,GI50,"RXF 393; Renal, RXF 393",20 nM
same,GI50,"SN12C; Renal, SN12C",560 nM
same,MTD,[1],100 mg/kg
CC(=O)N[C@H]1CC[C@H](Nc2nc(NCc3ccc(-c4ccccc4)nc3)c3ncn(C(C)C)c3n2)CC1 [Compound 87],IC50,CyclinB/cdk1,5000 nM
same,GI50,HeLa S-3 cells,6 nM
same,GI50,BT-549; BT-549 (Breast),20 nM
same,GI50,HS 578T; HS 578T (Breast),< 10 nM
same,GI50,MCF7; MCF7 (Breast),40 nM
same,GI50,MDA-MB-435; MDA-MB-435 (Breast),< 10 nM
same,GI50,T-47D; T-47D (Breast),48 nM
same,GI50,SF-539; SF-539 (CNS),81 nM
same,GI50,SNB-19; SNB-19 (CNS),38 nM
same,GI50,HT29; HT29 (Colon),< 10 nM
same,GI50,HL-60(TB),< 10 nM
same,GI50,RPMI-8226; RPMI-8226 (Leukemia),< 10 nM
same,GI50,LOX IMVI; LOX IMVI (Melanoma),27 nM
same,GI50,NCI-H23; NCI-H23 (Non-Small Cell Lung),22 nM
same,GI50,IGROV1; IGROV1 (Ovarian),52 nM
same,GI50,OVCAR-4; OVCAR-4 (Ovarian),48 nM
same,GI50,PC-3; PC-3 (Prostate),18 nM
same,GI50,ACHN; ACHN (Renal),190 nM
same,GI50,CAKI-1; CAKI-1 (Renal),64 nM
same,GI50,RXF 393; RXF 393 (Renal),11 nM
same,GI50,SN12C; SN12C (Renal),< 10 nM
same,IC50,CyclinA/cdk2,4000 nM and 2000 nM and 500 nM
same,IC50,CyclinE/cdk2,1000 nM and 300 nM and 100 nM
